Tests used:
A549 = assay: Cytotoxicity against human A549 cells; assay type: functional, cell-based
NCI-H460 = assay: Cytotoxicity against human NCI-H460 cells; assay type: functional, cell-based
HCT-116 = assay: Cytotoxicity against human HCT116 cells; assay type: functional, cell-based
Staphylococcus aureus = assay: Antibacterial activity against Staphylococcus aureus; assay type: functional
Enterococcus faecalis = assay: Antibacterial activity against Enterococcus faecalis; assay type: functional
Escherichia coli = assay: Antibacterial activity against Escherichia coli; assay type: functional
Pseudomonas aeruginosa = assay: Antibacterial activity against Pseudomonas aeruginosa; assay type: functional
Hepatitis C virus = assay: Antiviral activity against HCV infected in human Huh7.5 cells assessed as reduction in intracellular HCV RNA incubated for 72 hrs by real-time one-step reverse-transcription polymerase chain reaction assay; assay type: functional, organism-based, Hepacivirus hominis; conditions: Huh7.5, 72 h
[1] = Cytotoxicity against human Huh7.5 cells assessed as reduction in cell viability; assay type: cell-based
[2] = Selectivity index, ratio of CC50 for Cytotoxicity against human Huh7.5 cells to EC50 for antiviral activity against HCV infected in human Huh7.5 cells; assay type: toxicity, cell-based; conditions: read-out: Ratio CC50/EC50

Compound	IC50 (A549) [µM]	IC50 (NCI-H460) [µM]	IC50 (HCT-116) [µM]	MIC (Staphylococcus aureus) [µg/mL]	MIC (Enterococcus faecalis) [µg/mL]	MIC (Escherichia coli) [µg/mL]	MIC (Pseudomonas aeruginosa) [µg/mL]	EC50 (Hepatitis C virus) [µM]	CC50 [1] [µM]	selectivity ratio [2]
O=C1N[C@@H](Cc2ccccc2)C(=O)N2O[C@H]3Nc4ccccc4[C@@]3(O)C[C@@H]12	≥ 100	≥ 100	≥ 100	> 128	> 128	> 128	> 128	5.7	> 200	> 35
O=C1N[C@@H](Cc2ccccc2)C(=O)N(O)[C@H]1C[C@]1(O)c2ccccc2N2C(=O)C[C@@H](c3ccccc3)N[C@H]21	≥ 100	≥ 100	≥ 100	> 128	> 128	> 128	> 128	> 33.3	88.4	< 3
O=C1Cn2c(nc3ccccc3c2=O)-c2ccccc2N1	≥ 100	≥ 100	≥ 100	> 128	> 128	> 128	> 128	7	> 200	> 28
O=C1NCc2nc3ccccc3c(=O)n2-c2ccccc21 [SCLEROTIGENIN]	≥ 100	≥ 100	≥ 100	> 128	> 128	> 128	> 128	5.8	> 200	> 35
CCC[C@H](NC(=O)[C@@H]1[C@H]2CCC[C@H]2CN1C(=O)[C@@H](NC(=O)[C@@H](NC(=O)c1cnccn1)C1CCCCC1)C(C)(C)C)C(=O)C(=O)NC1CC1 [TELAPREVIR]								0.05	25.8	478

Reference: ChEMBL document CHEMBL4316647, “Raistrickindole A, an Anti-HCV Oxazinoindole Alkaloid from Penicillium raistrickii IMB17-034” (J Nat Prod, 2019)
